3 compounds from ChEMBL document CHEMBL2074244, “Loss of ATP-dependent transport activity in pseudoxanthoma elasticum-associated mutants of human ABCC6 (MRP6)” (J Biol Chem, 2002) can be followed below.

SMILES strings stand for the structures.

Type in all cases: functional, cell membranes, Membrane vesicle
What all share (set-up): scale not given: the % may be the effect or the level left

For series [1], the target named is ATP-binding cassette sub-family C member 2 (Homo sapiens, UniProt Q92887). Kind of series: TP_TRANSPORTER: inhibition of NEM-GS by Benzbromarone at a concentration of 30uM in membrane vesicles from MRP2-expressing Sf9 cells. The following applies: sf9, 30 µM.
For series [2], the target named is T1, MRP6 (ABCC6) (Homo sapiens, UniProt O95255). Briefly: TP_TRANSPORTER: inhibition of NEM-GS in the presence of Benzbromarone at a concentration of 30uM in membrane vesicles from MRP6-expressing Sf9 cells. The following applies: probe NEM-GS, read-out: Activity.
The target in series [3] is T1, MRP6 (ABCC6). Kind of series: TP_TRANSPORTER: inhibition of NEM-GS by Benzbromarone at a concentration of 30uM in membrane vesicles from MRP6-expressing Sf9 cells. The following applies: probe NEM-GS, read-out: Activity.
For series [4], the target named is T1, MRP6 (ABCC6). Kind of series: TP_TRANSPORTER: inhibition of NEM-GS in the presence of Indomethacin at a concentration of 100uM in membrane vesicles from MRP6-expressing Sf9 cells. The conditions noted are these: probe NEM-GS, read-out: Activity.
The target of series [5] is T1, MRP6 (ABCC6). Briefly: TP_TRANSPORTER: inhibition of NEM-GS by Indomethacin at a concentration of 100uM in membrane vesicles from MRP6-expressing Sf9 cells. The conditions noted are these: probe NEM-GS, read-out: Activity.
The target of another series is MRP2 (ABCC2) (Homo sapiens, UniProt Q92887). Kind of series: TP_TRANSPORTER: inhibition of NEM-GS by Probenecid at a concentration of 1mM in membrane vesicles from MRP2-expressing Sf9 cells. The following applies: probe NEM-GS, read-out: Activity.
For series [6], the target named is ATP-binding cassette sub-family C member 6 (Homo sapiens, UniProt O95255). Kind of series: TP_TRANSPORTER: inhibition of NEM-GS by Probenecid at a concentration of 1mM in membrane vesicles from MRP6-expressing Sf9 cells. The conditions noted are these: sf9, 1000 µM.
In series [7] the target is T1, MRP6 (ABCC6). Kind of series: TP_TRANSPORTER: inhibition of NEM-GS in the presence of Probenecid at a concentration of 1mM in membrane vesicles from MRP6-expressing Sf9 cells. The following applies: probe NEM-GS, read-out: Activity.

T1 sequence (O95255 whole entry): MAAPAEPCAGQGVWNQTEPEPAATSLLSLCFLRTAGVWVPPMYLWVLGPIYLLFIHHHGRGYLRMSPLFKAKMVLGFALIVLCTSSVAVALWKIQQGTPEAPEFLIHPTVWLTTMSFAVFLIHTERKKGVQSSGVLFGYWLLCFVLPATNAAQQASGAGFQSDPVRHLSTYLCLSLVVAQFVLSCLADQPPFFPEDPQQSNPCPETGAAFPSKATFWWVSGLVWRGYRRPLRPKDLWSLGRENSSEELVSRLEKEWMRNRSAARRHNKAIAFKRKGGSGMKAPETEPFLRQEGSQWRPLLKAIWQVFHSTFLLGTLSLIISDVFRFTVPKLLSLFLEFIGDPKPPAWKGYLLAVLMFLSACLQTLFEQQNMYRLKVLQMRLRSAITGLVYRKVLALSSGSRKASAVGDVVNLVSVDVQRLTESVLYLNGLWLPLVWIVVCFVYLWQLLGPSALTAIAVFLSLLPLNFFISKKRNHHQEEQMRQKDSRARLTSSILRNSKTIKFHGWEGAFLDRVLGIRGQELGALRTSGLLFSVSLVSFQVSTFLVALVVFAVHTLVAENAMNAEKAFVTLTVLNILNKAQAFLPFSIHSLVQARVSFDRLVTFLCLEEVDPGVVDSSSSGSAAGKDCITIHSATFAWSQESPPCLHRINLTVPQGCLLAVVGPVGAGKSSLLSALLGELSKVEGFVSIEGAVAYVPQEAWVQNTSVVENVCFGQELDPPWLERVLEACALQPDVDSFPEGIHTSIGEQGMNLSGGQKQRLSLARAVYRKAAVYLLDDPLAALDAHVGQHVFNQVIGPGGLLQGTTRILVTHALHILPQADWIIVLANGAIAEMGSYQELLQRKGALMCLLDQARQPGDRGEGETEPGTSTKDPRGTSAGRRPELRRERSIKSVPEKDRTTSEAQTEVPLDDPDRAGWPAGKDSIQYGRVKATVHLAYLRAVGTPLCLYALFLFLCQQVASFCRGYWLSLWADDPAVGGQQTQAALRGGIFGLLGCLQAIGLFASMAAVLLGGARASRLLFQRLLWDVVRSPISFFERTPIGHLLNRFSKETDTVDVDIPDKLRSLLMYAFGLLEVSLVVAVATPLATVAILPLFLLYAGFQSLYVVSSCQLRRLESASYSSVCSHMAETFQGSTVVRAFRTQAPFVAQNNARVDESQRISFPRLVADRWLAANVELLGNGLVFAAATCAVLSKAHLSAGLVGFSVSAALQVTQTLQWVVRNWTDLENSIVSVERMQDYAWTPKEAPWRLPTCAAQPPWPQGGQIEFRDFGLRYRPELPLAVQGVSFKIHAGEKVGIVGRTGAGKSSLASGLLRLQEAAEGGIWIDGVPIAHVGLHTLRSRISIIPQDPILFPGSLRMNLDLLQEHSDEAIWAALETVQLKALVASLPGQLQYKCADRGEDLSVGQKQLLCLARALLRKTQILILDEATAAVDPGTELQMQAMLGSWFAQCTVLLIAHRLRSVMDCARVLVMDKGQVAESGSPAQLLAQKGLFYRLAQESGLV
Chain of ATP-binding cassette sub-family C member 6 (O95255 whole entry): as above
Chain of MRP2 (ABCC2) (Q92887 whole entry): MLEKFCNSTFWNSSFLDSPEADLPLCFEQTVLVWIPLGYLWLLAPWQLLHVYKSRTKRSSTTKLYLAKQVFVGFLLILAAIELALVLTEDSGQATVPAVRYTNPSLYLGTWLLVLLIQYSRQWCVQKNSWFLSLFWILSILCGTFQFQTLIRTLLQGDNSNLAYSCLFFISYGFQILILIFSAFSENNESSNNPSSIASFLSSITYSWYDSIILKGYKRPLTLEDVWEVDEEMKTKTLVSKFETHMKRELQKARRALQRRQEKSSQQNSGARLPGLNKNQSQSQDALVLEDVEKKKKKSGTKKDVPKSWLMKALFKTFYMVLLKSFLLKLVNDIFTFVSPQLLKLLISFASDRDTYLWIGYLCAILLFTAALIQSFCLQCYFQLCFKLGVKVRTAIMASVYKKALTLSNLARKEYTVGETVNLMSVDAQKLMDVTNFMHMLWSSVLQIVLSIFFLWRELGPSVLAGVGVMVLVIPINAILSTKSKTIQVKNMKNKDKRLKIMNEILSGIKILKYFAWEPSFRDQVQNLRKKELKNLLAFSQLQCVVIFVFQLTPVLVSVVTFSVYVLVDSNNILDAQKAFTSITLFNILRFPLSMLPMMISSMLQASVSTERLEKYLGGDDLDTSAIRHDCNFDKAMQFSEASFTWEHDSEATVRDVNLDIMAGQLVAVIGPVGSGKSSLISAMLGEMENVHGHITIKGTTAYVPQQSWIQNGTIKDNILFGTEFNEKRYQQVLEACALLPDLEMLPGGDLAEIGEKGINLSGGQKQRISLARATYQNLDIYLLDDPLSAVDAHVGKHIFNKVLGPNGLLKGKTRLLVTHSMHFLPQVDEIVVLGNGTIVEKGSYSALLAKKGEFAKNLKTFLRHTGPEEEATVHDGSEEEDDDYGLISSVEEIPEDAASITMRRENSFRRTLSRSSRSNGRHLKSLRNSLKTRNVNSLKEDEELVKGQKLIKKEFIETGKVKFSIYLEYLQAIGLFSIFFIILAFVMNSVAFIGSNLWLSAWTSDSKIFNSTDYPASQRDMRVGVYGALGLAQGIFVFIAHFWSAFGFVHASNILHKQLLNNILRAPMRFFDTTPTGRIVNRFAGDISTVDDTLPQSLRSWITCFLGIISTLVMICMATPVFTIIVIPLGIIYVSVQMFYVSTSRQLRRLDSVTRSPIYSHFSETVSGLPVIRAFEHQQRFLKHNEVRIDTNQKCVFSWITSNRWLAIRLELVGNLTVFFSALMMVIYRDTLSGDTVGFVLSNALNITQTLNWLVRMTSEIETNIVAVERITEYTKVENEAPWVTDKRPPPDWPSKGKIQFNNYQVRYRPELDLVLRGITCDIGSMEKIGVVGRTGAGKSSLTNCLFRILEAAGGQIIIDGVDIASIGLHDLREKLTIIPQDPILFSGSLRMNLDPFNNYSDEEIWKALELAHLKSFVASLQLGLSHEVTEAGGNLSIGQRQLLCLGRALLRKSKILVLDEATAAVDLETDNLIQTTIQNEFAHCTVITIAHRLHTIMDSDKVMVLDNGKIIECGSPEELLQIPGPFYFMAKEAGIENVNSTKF
Chain of ATP-binding cassette sub-family C member 2 (Q92887 whole entry): as above

`CCc1oc2ccccc2c1C(=O)c1cc(Br)c(O)c(Br)c1` [BENZBROMARONE]: in series [1], the Activity was found to be 0%. Also, the activity at 30 µM on MRP6 (ABCC6) [2] and on MRP6 (ABCC6) [3] was 0% throughout.
For `COc1ccc2c(c1)c(CC(=O)O)c(C)n2C(=O)c1ccc(Cl)cc1` [INDOMETHACIN], the results for the activity at 100 µM on MRP6 (ABCC6) [4] and on MRP6 (ABCC6) [5] were 80% and 20%, respectively.
For the compound `CCCN(CCC)S(=O)(=O)c1ccc(C(=O)O)cc1` [PROBENECID], the activity at 1000 µM at MRP2 (ABCC2) was 20%; at MRP6 (ABCC6) [7] it was 10%. In addition, the Activity in series [6] worked out at 70%.
